Patent US20230381077A1, “Antibacterial And Deodorizing Composition, And Preparation Method Therefor” (LG Chem, Ltd., priority 2021, published 2023)

Columns and labels:
[1] = system: E. coli; assay: Antibacterial power measurement of first compound (bacterial inhibition rate, broth, absorbance 600 nm); type: cell-based; settings: Escherichia coli, 0.01 g first compound in 25 ml broth, 3,000 CFU/ml, 35° C. for 16 hours
[2] = system: Proteus mirabilis; assay: as above; type: cell-based; settings: 0.01 g first compound in 25 ml broth, 3,000 CFU/ml, 35° C. for 16 hours

| SMILES | inhibition of growth at 400 µg/mL [1] [%] | inhibition of growth at 400 µg/mL [2] [%] | inhibition of growth at 400 µg/mL ([1]; 16 h) [%] | inhibition of growth at 400 µg/mL ([2]; 16 h) [%] |
| --- | --- | --- | --- | --- |
| CCCCCCCCCCCC[N+](C)(C)CCO [Antibacterial Deodorant Monomer E] | 96.1 | 96.9 |  |  |
| CCCCCCCC[N+](C)(CCO)CCO [Antibacterial Deodorant Monomer B] | 89.3 | 91.2 |  |  |
| CCCC[N+](C)(CCO)CCO [Antibacterial Deodorant Monomer G] | 15.2 | 18.3 |  |  |
| CCCCCCCCCC[N+](C)(CCO)CCO [Antibacterial Deodorant Monomer A] | 98.9 | 99.9 |  |  |
| CCCCCCCCCC[N+](C)(C)CCO [Antibacterial Deodorant Monomer D] | 94.4 | 91.7 |  |  |
| CCCCCCCCCCCC[N+](C)(C)CCCCCCCCCCCC [Didodecyldimethylammonium chloride, reference compound] | 90.1 | 88.5 |  |  |
| CCCCCCCCCCCC[N+](CCO)(CCCCCCCCCC)CCCCCCCCCCCC [reference compound] | 79.8 | 81.3 |  |  |
| CCCCCCCCCCCCCCCC[N+](C)(C)C [Hexadecyltrimethylammonium chloride, reference compound] |  |  | 92.1 | 93.5 |
| CCCCCCCCCC[N+](C)(C)CCCCCCCCO [reference compound] | 82.1 | 85.1 |  |  |
| CCCCCCCCCC[N+](C)(C)CCO [Antibacterial Deodorant Monomer F] |  |  | 96.4 | 83.1 |
| N=C(N)N [Guanidine, reference compound] | 96.5 | 97.2 |  |  |
